# Test: Single oral dose plasma PK in fasted dogs
# Assay type: in vivo, dog
# Conditions: for Tmax / bioavailability / AUC(0-inf) / Cmax / half-life / AUC(0-t): beagle, dog, plasma
# Source text: With the suspension formulation the double-peak phenomenon is even more pronounced.
# As observed in rats, dose escalation in dogs resulting in proportional or dose-related exposure with the PEG400 solution was unsuccessful in identifying a vehicle suitable for toxicology studies.
# [1] = male, po, 5 mg/kg, 3M (N = 2 used), 5 mg/kg PO, 100% PEG400 solution, Study 1
# [2] = male, po, 5 mg/kg, 3M, 5 mg/kg PO, 0.5% HPMC suspension, Study 4
# [3] = male, po, 5 mg/kg, 3M, 5 mg/kg PO, -ZAF salt nanosuspension (HPMC:DOSS suspension), Study 5
# [4] = male, po, 20 mg/kg, 3M, 20 mg/kg PO, 0.5% HPMC suspension, Study 2
# [5] = male, po, 20 mg/kg, 3M, 20 mg/kg PO, 0.5% HPMC suspension, Study 4
# [6] = male, po, 20 mg/kg, 3M, 20 mg/kg PO, 100% PEG400 solution, Study 3
# [7] = male, po, 20 mg/kg, 3M, 20 mg/kg PO, -ZAF salt nanosuspension (HPMC:DOSS suspension), Study 5
# [8] = male, po, 22.5 mg/kg, 3M, 22.5 mg/kg PO, PEG400/PVP VA 90:10 solution, Study 6
smiles,measurement,setting,value
"O=C(Nc1ccnc(C(F)(F)F)c1)c1cnn(-c2cccc3c(=O)[nH]ccc23)c1C(F)(F)F [Compound A, 1-(1-oxo-1,2-dihydroisoquinolin-5-yl)-5-(trifluoromethyl)-N-[2-(trifluoromethyl)pyridin-4-yl]-1H-pyrazole-4-carboxamide]",Tmax,"female, po, 560 mg/kg, 2F, 560 mg/kg PO, 100% PEG400 solution, Study 7, median",24 h
same,increase in Cmax and AUC,"from 22.5 to 280 mg/kg, PVP VA in PEG400 solution",approximately 5 fold
same,bioavailability,"male, oral, 5 mg/kg, 5 mg/kg PO, 100% PEG400 solution, Study 1, calculated using the IV data from Study 1",> 100%
same,bioavailability,"male, po, 5 mg/kg, 5 mg/kg PO, 0.5% HPMC suspension, Study 4",14 to 66%
same,AUC(0-inf),[1],146 µg·h/mL
same,Cmax,[1],6150 ng/mL
same,Tmax,[1],2 h
same,half-life,[1],17.3 h
same,AUC(0-t),"male, po, 5 mg/kg, 3M (N = 2 used), 5 mg/kg PO, 100% PEG400 solution, Study 1, Tlast = 48 hours",143 µg·h/mL
same,AUC(0-inf),[2],30.7 µg·h/mL
same,AUC(0-t),[2],43.7 µg·h/mL
same,Cmax,[2],2030 ng/mL
same,Tmax,[2],9 h
same,half-life,[2],21.8 h
same,AUC(0-inf),[3],26.4 µg·h/mL
same,AUC(0-t),[3],43.7 µg·h/mL
same,Cmax,[3],1450 ng/mL
same,Tmax,[3],9.33 h
same,half-life,[3],11.5 h
same,AUC(0-inf),"male, po, 20 mg/kg, 20 mg/kg PO, 0.5% HPMC suspension, Study 2, N = 1 animal with low exposure",15.6 µg·h/mL
same,bioavailability,"male, po, 20 mg/kg, 20 mg/kg PO, 100% PEG400 solution, Study 3",33 to 72%
same,Cmax,[4],4010 ng/mL
same,Tmax,[4],16.7 h
same,half-life,[4],17.8 h
same,AUC(0-t),"male, po, 20 mg/kg, 3M, 20 mg/kg PO, 0.5% HPMC suspension, Study 2, Tlast = 72 hours",153 µg·h/mL
same,AUC(0-inf),[5],31.8 µg·h/mL
same,AUC(0-t),[5],160 µg·h/mL
same,Cmax,[5],4080 ng/mL
same,Tmax,[5],16.7 h
same,half-life,[5],14.3 h
same,AUC(0-inf),[6],224 µg·h/mL
same,Cmax,[6],5770 ng/mL
same,Tmax,[6],8.33 h
same,half-life,[6],18.6 h
same,AUC(0-t),"male, po, 20 mg/kg, 3M, 20 mg/kg PO, 100% PEG400 solution, Study 3, Tlast = 96 hours",215 µg·h/mL
same,AUC(0-inf),[7],87 µg·h/mL
same,AUC(0-t),[7],111 µg·h/mL
same,Cmax,[7],3510 ng/mL
same,Tmax,[7],9 h
same,half-life,[7],16.6 h
same,AUC(0-inf),[8],757 µg·h/mL
same,Cmax,[8],21000 ng/mL
same,Tmax,[8],1.25 h
same,half-life,[8],14.1 h
same,AUC(0-t),"male, po, 22.5 mg/kg, 3M, 22.5 mg/kg PO, PEG400/PVP VA 90:10 solution, Study 6, Tlast = 96 hours",741 µg·h/mL

# Reference: patent US20240299376A1, “METHOD OF TREATING A CONDITION USING A […] EFFECTIVE DOSE OF 1-(1-OXO-1,2-DIHYDROISOQUINOLIN-5-YL)-5-(TRIFLUOROMETHYL)-N-(2-(TRIFLUOROMETHYL)PYRIDIN-4-YL)-1H-PYRAZOLE-4-CARBOXAMIDE” (Janssen Pharmaceutica NV, priority 2021, published 2024)
